# Laboratory results reported in patent US9283242B2, “Uses of dihydro bases” (priority 2013, dated 2016).
# “Also recorded” adds a separate entry of the source.
# Columns and labels:
# [1] = Variable temperature FTIR and 2D IR, tautomerism in aqueous solution; type: physicochemical; conditions: deuterated 0.5 M phosphate buffer pD 7.9, 10-80° C.
# Protocol: For both 1D FTIR and 2D IR experiments, the H/D exchanged KP1212 was dissolved at a concentration of 20 mg/ml (88 mM) in 0.5 M phosphate buffer pD (pH reading in D2O) 7.9. About 25 μl of sample solution was sandwiched between two CaF2 windows separated by a 50 μm TEFLON spacer. Variable-temperature FTIR spectra were collected using Nicolet 380 FTIR spectrometer at 1.0 cm^−1 resolution with 16 scans per spectrum. Spectra for both the sample and the D2O were collected with the same procedure and the solvent spectra were subtracted from the sample spectra.
# Absorptive 2D IR spectra were collected using a 2D IR spectrometer as described in detail previously (Chung, H. S., Khalil, M., Smith, A. W. & Tokmakoff, A. Transient two-dimensional IR spectrometer for probing nanosecond temperature-jump kinetics. Rev. Sci. Instrum. 78, 063101 (2007)). The relative polarizations of the pulses were set to be perpendicular (ZZYY). The waiting time (τ2) between the first two pulses and the third pulse was fixed at 150 fs. The coherence time between the first and the second pulse was scanned in 4 fs steps from −60 fs to 2.8 ps and 2.0 ps for rephasing and non-rephasing spectra, respectively. […]
# 2D IR spectroscopy is analogous to 2D NMR: sequences of ultrafast IR pulses are employed to excite molecular vibrations, and the energy flow from one vibration to others is then detected. […]
# [2] = Phase I and II clinical trials; cited from earlier work
smiles,measurement,setting,value
"NC1=NC(=O)N([C@H]2C[C@H](O)[C@@H](CO)O2)CN1 [KP1212, 5-aza-5,6-dihydro-2′-deoxycytidine]",tautomerism by FTIR and 2D IR,[1],multiple tautomeric forms; also recorded: different tautomeric forms
same,safety in clinical trials,[2],safe
